# From US6872729B2, “Pyrimidinylbenzimidazole and triazinylbenzimidazole derivatives and agricultural/horticultural fungicides” (Kumiai Chemical Industry Co., Ltd., priority 1998, dated 2005)
# System: Erysiphe graminis
# Experiment: Test for preventive effect on wheat powdery mildew
# Format: in vivo
# Conditions: wheat (Norin-61-go) seedlings, 500 ppm active ingredient, preventive treatment; diseased area of first leaves 10 days after inoculation with Erysiphe graminis
# Description: Test for Preventive Effect on Wheat Powdery Mildew 9 Wheat seeds (variety: Norin-61-go) were sown in each 9 cm×9 cm polyvinyl chloride pot, grown in a greenhouse for 8 days, then treated with 10 ml per pot of aqueous solutions of wettable powders prepared in accordance with Formulation Example 2, at a concentration of 500 ppm in terms of the active ingredients and dried in the air. Then, the seedlings were inoculated with Erysiphe graminis spores by sprinkle over the plant and placed in a greenhouse of from 20 to 25° C. 10 days after the inoculation, the total diseases area of the first leaves in each pot was observed and evaluated on the basis of the standards shown in Table 67. [table]
row,Structure (SMILES),Biological effectiveness
1,COc1nc(OC)nc(-n2c(C)nc3cc(C(=O)c4ccccc4)ccc32)n1 [Compound I-235],A (No diseased area)
2,COc1nc(OC)nc(-n2c(C)nc3cc(C#N)ccc32)n1 [Compound I-239],A (No diseased area)
3,COc1nc(OC)nc(-n2c(C)nc3ccc(C)cc32)n1 [Compound I-242],A (No diseased area)
4,COc1nc(OC)nc(-n2c(C)nc3c(C)cc(C)cc32)n1 [Compound I-250],B (Diseased area of less than 25%)
5,COc1nc(OC)nc(-n2c(C)nc3cc(C)c(C)cc32)n1 [Compound I-251],A (No diseased area)
6,COc1cc(OC)nc(-n2c(Cl)nc3cc(F)ccc32)n1 [Compound I-255],A (No diseased area)
7,COc1cc(OC)nc(-n2c(Cl)nc3cc(Cl)ccc32)n1 [Compound I-256],A (No diseased area)
8,COc1cc(OC)nc(-n2c(Cl)nc3cc(C(F)(F)F)ccc32)n1 [Compound I-259],A (No diseased area)
9,COc1ccc2c(c1)nc(Cl)n2-c1nc(OC)cc(OC)n1 [Compound I-260],A (No diseased area)
10,CCOc1ccc2c(c1)nc(Cl)n2-c1nc(OC)cc(OC)n1 [Compound I-261],B (Diseased area of less than 25%)
11,COc1cc(OC)nc(-n2c(Cl)nc3cc(OC(F)(F)F)ccc32)n1 [Compound I-263],A (No diseased area)
12,COc1cc(OC)nc(-n2c(Cl)nc3ccc(Cl)cc32)n1 [Compound I-271],A (No diseased area)
13,COc1cc(OC)nc(-n2c(Cl)nc3ccc(C)cc32)n1 [Compound I-272],A (No diseased area)
14,COc1nc(OC)nc(-n2c(Cl)nc3cc(C)ccc32)n1 [Compound I-279],A (No diseased area)
15,COc1cc(OC)nc(-n2c(C(F)(F)F)nc3cc(F)ccc32)n1 [Compound I-295],A (No diseased area)
16,COc1cc(OC)nc(-n2c(C(F)(F)F)nc3cc(Cl)ccc32)n1 [Compound I-296],A (No diseased area)
17,COc1cc(OC)nc(-n2c(C(F)(F)F)nc3cc(C(F)(F)F)ccc32)n1 [Compound I-299],A (No diseased area)
18,COc1ccc2c(c1)nc(C(F)(F)F)n2-c1nc(OC)cc(OC)n1 [Compound I-300],A (No diseased area)
19,CCOc1ccc2c(c1)nc(C(F)(F)F)n2-c1nc(OC)cc(OC)n1 [Compound I-301],A (No diseased area)
20,COc1cc(OC)nc(-n2c(C(F)(F)F)nc3ccc(C)cc32)n1 [Compound I-307],A (No diseased area)
21,COc1nc(OC)nc(-n2c(C(F)(F)F)nc3cc(F)ccc32)n1 [Compound I-309],A (No diseased area)
22,COc1nc(OC)nc(-n2c(C(F)(F)F)nc3cc(Cl)ccc32)n1 [Compound I-310],A (No diseased area)
23,COc1nc(OC)nc(-n2c(C(F)(F)F)nc3cc(Br)ccc32)n1 [Compound I-311],A (No diseased area)
24,CCc1ccc2c(c1)nc(C(F)(F)F)n2-c1nc(OC)nc(OC)n1 [Compound I-313],A (No diseased area)

row,Structure (SMILES),Biological effectiveness
1,CCCc1ccc2c(c1)nc(C(F)(F)F)n2-c1nc(OC)nc(OC)n1 [Compound I-314],A (No diseased area)
2,COc1nc(OC)nc(-n2c(C(F)(F)F)nc3cc(C(C)C)ccc32)n1 [Compound I-315],B (Diseased area of less than 25%)
3,COc1nc(OC)nc(-n2c(C(F)(F)F)nc3cc(C(C)(C)C)ccc32)n1 [Compound I-316],B (Diseased area of less than 25%)
4,COc1ccc2c(c1)nc(C(F)(F)F)n2-c1nc(OC)nc(OC)n1 [Compound I-318],A (No diseased area)
5,COc1nc(OC)nc(-n2c(C(F)(F)F)nc3cc(OC(F)(F)F)ccc32)n1 [Compound I-321],A (No diseased area)
6,COc1nc(OC)nc(-n2c(C(F)(F)F)nc3cc(I)ccc32)n1 [Compound I-327],A (No diseased area)
7,CCc1nc2cc(F)ccc2n1-c1nc(OC)cc(OC)n1 [Compound I-332],B (Diseased area of less than 25%)
8,CCc1nc2cc(Cl)ccc2n1-c1nc(OC)cc(OC)n1 [Compound I-333],A (No diseased area)
9,CCc1nc2cc(C)ccc2n1-c1nc(OC)cc(OC)n1 [Compound I-334],A (No diseased area)
10,CCc1nc2cc(C(F)(F)F)ccc2n1-c1nc(OC)cc(OC)n1 [Compound I-335],A (No diseased area)
11,CCc1nc2cc(OC)ccc2n1-c1nc(OC)cc(OC)n1 [Compound I-336],A (No diseased area)
12,CCc1nc2cc(Cl)ccc2n1-c1nc(OC)nc(OC)n1 [Compound I-346],A (No diseased area)
13,CCCc1nc2cc(Cl)ccc2n1-c1nc(OC)nc(OC)n1 [Compound I-358],A (No diseased area)
14,COc1nc(OC)nc(-n2c(C(C)C)nc3cc(Cl)ccc32)n1 [Compound I-359],A (No diseased area)
15,COc1nc(OC)nc(-n2c(C3CC3)nc3cc(Cl)ccc32)n1 [Compound I-360],B (Diseased area of less than 25%)
16,COc1ccc2c(c1)nc(N)n2-c1nc(OC)cc(OC)n1 [Compound I-364],A (No diseased area)
17,COc1cc(OC)nc(-n2c(N)nc3ccc(C)cc32)n1 [Compound I-366],A (No diseased area)
18,COc1nc(OC)nc(-n2c(N)nc3cc(C)ccc32)n1 [Compound I-369],B (Diseased area of less than 25%)
19,CNc1nc2cc(Cl)ccc2n1-c1nc(OC)nc(OC)n1 [Compound I-375],A (No diseased area)
20,COc1nc(OC)nc(-n2c(N(C)C)nc3cc(Cl)ccc32)n1 [Compound I-376],B (Diseased area of less than 25%)
21,COCc1nc2cc(Cl)ccc2n1-c1nc(OC)nc(OC)n1 [Compound I-377],A (No diseased area)
22,COc1nc(OC)nc(-n2c(-c3ccccc3)nc3cc(Cl)ccc32)n1 [Compound I-378],A (No diseased area)
23,COc1nc(OC)nc(-n2c(Cc3ccccc3)nc3cc(Cl)ccc32)n1 [Compound I-379],A (No diseased area)
24,COc1cc(OC)nc(-n2c(C#N)nc3cc(Cl)ccc32)n1 [Compound I-380],A (No diseased area)

row,Structure (SMILES),Biological effectiveness
1,COc1cc(OC)nc(-n2c(C#N)nc3cc(C)ccc32)n1 [Compound I-381],A (No diseased area)
2,COc1cc(OC)nc(-n2c(SC)nc3cc(Cl)ccc32)n1 [Compound I-388],A (No diseased area)
3,COc1cc(OC)nc(-n2c(SC)nc3cc(C)ccc32)n1 [Compound I-389],B (Diseased area of less than 25%)
4,COc1nc(OC)nc(-n2c(SC)nc3cc(Cl)ccc32)n1 [Compound I-394],A (No diseased area)
5,COc1cc(OC)nc(-n2c(C(Cl)(Cl)Cl)nc3cc(Cl)ccc32)n1 [Compound I-400],A (No diseased area)
6,COc1cc(OC)nc(-n2c(C(Cl)(Cl)Cl)nc3ccc(C)cc32)n1 [Compound I-404],B (Diseased area of less than 25%)
7,COc1nc(OC)nc(-n2c(C(Cl)(Cl)Cl)nc3cc(Cl)ccc32)n1 [Compound I-405],A (No diseased area)
8,COc1nc(OC)nc(-n2c(C(Cl)(Cl)Cl)nc3cc(C)ccc32)n1 [Compound I-406],A (No diseased area)
9,COc1cc(OC)nc(-n2c(S(C)(=O)=O)nc3cc(Cl)ccc32)n1 [Compound I-423],A (No diseased area)
10,COc1cc(OC)nc(-n2c(S(C)(=O)=O)nc3cc(C)ccc32)n1 [Compound I-424],A (No diseased area)
11,CCOc1nc(OC)nc(-n2c(C)nc3cc(Cl)ccc32)n1 [Compound I-438],A (No diseased area)
12,CCOc1cc(OCC)nc(-n2cnc3ccccc32)n1 [Compound I-457],B (Diseased area of less than 25%)
13,CCOc1cc(OCC)nc(-n2c(Cl)nc3ccccc32)n1 [Compound I-458],A (No diseased area)
14,CCOc1cc(OCC)nc(-n2c(C)nc3ccccc32)n1 [Compound I-461],A (No diseased area)
15,CCOc1cc(OCC)nc(-n2c(CC)nc3ccccc32)n1 [Compound I-462],B (Diseased area of less than 25%)
16,CCOc1cc(OCC)nc(-n2c(C(F)(F)F)nc3ccccc32)n1 [Compound I-465],B (Diseased area of less than 25%)
17,CCOc1cc(OCC)nc(-n2cnc3cc(F)ccc32)n1 [Compound I-479],A (No diseased area)
18,CCOc1cc(OCC)nc(-n2cnc3cc(Cl)ccc32)n1 [Compound I-480],A (No diseased area)
19,CCOc1cc(OCC)nc(-n2cnc3cc(C)ccc32)n1 [Compound I-482],A (No diseased area)
20,CCOc1cc(OCC)nc(-n2cnc3cc(C(F)(F)F)ccc32)n1 [Compound I-483],A (No diseased area)
21,CCOc1cc(OCC)nc(-n2cnc3ccc(Cl)cc32)n1 [Compound I-486],A (No diseased area)
22,CCOc1nc(OCC)nc(-n2cnc3cc(Br)ccc32)n1 [Compound I-490],A (No diseased area)
23,CCOc1cc(OCC)nc(-n2c(C)nc3cc(F)ccc32)n1 [Compound I-498],A (No diseased area)
